In PMC10478824, “Development of FAPI Tetramers to Improve Tumor Uptake and Efficacy of FAPI Radioligand Therapy” (Journal of Nuclear Medicine, 2023):

How the values were obtained:
[1] = biological target: T1, FAP (FAP-positive HT-1080-FAP cells) (Homo sapiens, UniProt Q12884); test: Competitive cell-binding assay against ^68Ga-FAPI-46; settings: competition with ^68Ga-FAPI-46, 60 min, read-out: 50% inhibitory concentration
T1 construct: expressed in transfected cells; host or cells: HT-1080 human fibrosarcoma cells, stably transfected (HT-1080-FAP)
T1 sequence (Q12884 1-760): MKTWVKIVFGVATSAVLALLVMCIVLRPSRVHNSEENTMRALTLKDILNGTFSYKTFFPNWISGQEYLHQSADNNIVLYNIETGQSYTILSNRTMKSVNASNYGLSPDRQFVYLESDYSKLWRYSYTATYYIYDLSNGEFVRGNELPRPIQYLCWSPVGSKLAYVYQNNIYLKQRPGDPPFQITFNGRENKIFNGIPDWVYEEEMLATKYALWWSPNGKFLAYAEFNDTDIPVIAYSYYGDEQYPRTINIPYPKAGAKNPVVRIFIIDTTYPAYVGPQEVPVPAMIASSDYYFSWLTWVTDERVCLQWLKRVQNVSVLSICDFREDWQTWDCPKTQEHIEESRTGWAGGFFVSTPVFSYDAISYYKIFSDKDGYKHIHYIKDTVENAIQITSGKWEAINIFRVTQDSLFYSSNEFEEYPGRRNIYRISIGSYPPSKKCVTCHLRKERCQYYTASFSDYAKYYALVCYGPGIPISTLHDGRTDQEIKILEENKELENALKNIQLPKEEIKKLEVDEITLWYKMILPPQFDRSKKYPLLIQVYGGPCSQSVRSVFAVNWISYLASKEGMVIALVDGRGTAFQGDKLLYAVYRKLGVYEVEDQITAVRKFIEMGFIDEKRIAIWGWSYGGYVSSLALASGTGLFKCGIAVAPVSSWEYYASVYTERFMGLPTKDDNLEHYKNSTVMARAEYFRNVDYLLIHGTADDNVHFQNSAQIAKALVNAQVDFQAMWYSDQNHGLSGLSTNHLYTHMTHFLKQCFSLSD
Protocol: A human fibrosarcoma cell line was stably transfected with FAP (HT-1080-FAP) and cultured, as previously described ([15]). A human glioblastoma cell line (U87MG, from the Chinese National Infrastructure of Cell Line Resource) was cultured in Dulbecco modified Eagle medium (Thermo Fischer Scientific) supplemented with 10% fetal bovine serum (Thermo Fisher Scientific). HT-1080-FAP cells were seeded in 24-well plates using RPMI 1640 medium with 10% fetal bovine serum, and the medium was replaced with fresh medium without fetal bovine serum when the cells reached 80%–90% density. ^68Ga-FAPI-46, ^68Ga-DOTA-2P(FAPI)2, ^68Ga-DOTA-4P(FAPI)4, or ^68Ga-DOTA-4P(FAPI)4 with 11.3 nmol of unlabeled FAPI-46 (for the blocking experiment) were added to the 24-well plates and incubated for 60, 90, and 120 min. For the competitive cell-binding assay, a gradient concentration (5.6 × 10^−13 to 10^−5 M) of FAPI-46, DOTA-2P(FAPI)2, or DOTA-4P(FAPI)4 was added to the cells and incubated with ^68Ga-FAPI-46 for 60 min. […] The radioactivity (counts per minute) was determined with a γ-counter (WIZARD^2 2480; PerkinElmer Inc.). […] The 50% inhibitory concentrations were determined by fitting a nonlinear regression model to the data using Prism software, version 8 (GraphPad Software Inc.).

[2] = In vitro stability in phosphate-buffered saline and fetal bovine serum (radio-HPLC); format: in vitro ADME; settings: 4 h incubation in phosphate-buffered saline and fetal bovine serum
[3] = tested on: HT-1080-FAP cells; test: Cell uptake and blocking experiment; format: cell-based, human; settings: 120 min
Protocol: A human fibrosarcoma cell line was stably transfected with FAP (HT-1080-FAP) and cultured, as previously described ([15]). A human glioblastoma cell line (U87MG, from the Chinese National Infrastructure of Cell Line Resource) was cultured in Dulbecco modified Eagle medium (Thermo Fischer Scientific) supplemented with 10% fetal bovine serum (Thermo Fisher Scientific). HT-1080-FAP cells were seeded in 24-well plates using RPMI 1640 medium with 10% fetal bovine serum, and the medium was replaced with fresh medium without fetal bovine serum when the cells reached 80%–90% density. ^68Ga-FAPI-46, ^68Ga-DOTA-2P(FAPI)2, ^68Ga-DOTA-4P(FAPI)4, or ^68Ga-DOTA-4P(FAPI)4 with 11.3 nmol of unlabeled FAPI-46 (for the blocking experiment) were added to the 24-well plates and incubated for 60, 90, and 120 min. For the competitive cell-binding assay, a gradient concentration (5.6 × 10^−13 to 10^−5 M) of FAPI-46, DOTA-2P(FAPI)2, or DOTA-4P(FAPI)4 was added to the cells and incubated with ^68Ga-FAPI-46 for 60 min. Similarly, a gradient concentration (5.4 × 10^−13 to 10^−5 M) of NOTA-2P(FAPI)2 or NOTA-4P(FAPI)4 was added to the cells and incubated with ^68Ga-FAPI-46 for 60 min. After each step, the cells were washed twice with phosphate-buffered saline (1 mL) and lysed with 1 M NaOH (0.5 mL). The radioactivity (counts per minute) was determined with a γ-counter (WIZARD^2 2480; PerkinElmer Inc.). All experiments were independently repeated 3 times. The 50% inhibitory concentrations were determined by fitting a nonlinear regression model to the data using Prism software, version 8 (GraphPad Software Inc.).

[4] = tested on: HT-1080-FAP tumors; test: Small-animal PET in HT-1080-FAP tumor-bearing mice; format: in vivo
Protocol: (§1) All animal experimental procedures were approved by the Animal Care and Ethics Committee of Xiamen University and performed in accordance with the Guidelines for the Care and Use of Animals of the Xiamen University Laboratory Animal Center. For in vivo experiments, 6-wk-old BALB/c nude mice (Beijing Vital River Laboratory Animal Technology Co., Ltd.) were subcutaneously inoculated with HT-1080-FAP or U87 cells (5 × 10^6 in 100 μL of phosphate-buffered saline) in the right shoulder.
(§2) Dynamic PET, static PET (with or without competition), and SPECT scans with radiolabeled monomeric, dimeric, and tetrameric FAPIs were performed on HT-1080-FAP tumor–bearing mice for pharmacokinetic evaluation. Additionally, static PET with ^68Ga-labeled monomeric, dimeric, and tetrameric FAPIs was performed and compared in U87MG tumor–bearing mice.
(§3) Approximately 7.4 MBq of ^68Ga-DOTA-4P(FAPI)4 was intravenously injected into HT-1080-FAP tumor–bearing mice (n = 3) for the 60-min dynamic PET. For multiple-time-point static PET (0.5, 1, 2, and 4 h after injection), 7.4 MBq of ^68Ga-FAPI-46, ^68Ga-DOTA-2P(FAPI)2, or ^68Ga-DOTA-4P(FAPI)4 were injected into HT-1080-FAP and U87MG tumor–bearing mice (3/group). For longer-term observation, HT-1080-FAP tumor–bearing mice were intravenously injected with 7.4 MBq of ^64Cu-NOTA-2P(FAPI)2 or ^64Cu-NOTA-4P(FAPI)4 (3/group). For the in vivo blocking experiment, PET imaging was performed 1 h after the simultaneous administration of 30 nmol of unlabeled FAPI-46 and 7.4 MBq of ^68Ga-DOTA-4P(FAPI)4.

[5] = tested on: U87MG tumors; test: Small-animal static PET in U87MG tumor-bearing mice; format: in vivo
Protocol: as §1, §2
as §3, with “For the in vivo blocking experiment, PET imaging was performed 1 h after the simultaneous administration of 30 nmol of unlabeled FAPI-46 and 7.4 MBq of ^68Ga-DOTA-4P(FAPI)4.” left out

Row | Compound | IC50 [1] [nM] | in vitro stability (demetallation / free radioactivity) [2] | in vitro stability (demetallation / free radioactivity) ([2]; listed as 68Ga-DOTA-4P[FAPI]4) | cell uptake [3] | reduction of cell uptake by blocking ([3]; unlabeled FAPI-46) [%] | cell uptake with blocking ([3]; with 11.3 nmol unlabeled FAPI-46) | elimination route ([4]; HT-1080-FAP tumor-bearing mice, PET) | reduction in tumor uptake by blocking ([4]; HT-1080-FAP tumors, 1 h after injection, unlabeled FAPI-46) [%] | tumor uptake SUVmean without blocking ([4]; HT-1080-FAP tumors, PET, 1 h after injection) | tumor uptake SUVmean with blocking ([4]; HT-1080-FAP tumors, PET, 1 h after injection, coinjection of 30 nmol unlabeled FAPI-46) | tumor uptake SUVmean ([4]; HT-1080-FAP tumors, PET, 4 h after injection) | course of tumor uptake over time ([4]; HT-1080-FAP tumors, static PET up to 4 h after injection) | washout from tumor ([5]; PET 0.5-4 h after injection) | tumor uptake SUVmean ([5]; PET, 1 h after injection)
1 | CN(CCCN1CCN(C(=O)COCCOCCOCCNC(=O)CCC(=O)NCCCC[C@H](NC(=O)CCC(=O)NCCOCCOCCOCC(=O)N2CCN(CCCN(C)c3ccc4nccc(C(=O)NCC(=O)N5CC(F)(F)C[C@H]5C#N)c4c3)CC2)C(=O)NCCCC[C@H](NC(=O)[C@H](CCCCNC(=O)CN2CCN(CC(=O)O)CCN(CC(=O)O)CCN(CC(=O)O)CC2)NC(=O)CCC(=O)NCCOCCOCCOCC(=O)N2CCN(CCCN(C)c3ccc4nccc(C(=O)NCC(=O)N5CC(F)(F)C[C@H]5C#N)c4c3)CC2)C(=O)NCCOCCOCCOCC(=O)N2CCN(CCCN(C)c3ccc4nccc(C(=O)NCC(=O)N5CC(F)(F)C[C@H]5C#N)c4c3)CC2)CC1)c1ccc2nccc(C(=O)NCC(=O)N3CC(F)(F)C[C@H]3C#N)c2c1 [DOTA-4P(FAPI)4] | 15.6 |  |  |  |  |  |  |  |  |  |  |  |  | 
2 | CN(CCCN1CCN(C(=O)COCCOCCOCCNC(=O)CCC(=O)NCCCC[C@H](NC(=O)CCC(=O)NCCOCCOCCOCC(=O)N2CCN(CCCN(C)c3ccc4nccc(C(=O)NCC(=O)N5CC(F)(F)C[C@H]5C#N)c4c3)CC2)C(=O)NCCCC[C@H](NC(=O)[C@H](CCCCNC(=O)CN2CCN(CC(=O)[O-])CCN(CC(=O)[O-])CCN(CC(=O)[O-])CC2)NC(=O)CCC(=O)NCCOCCOCCOCC(=O)N2CCN(CCCN(C)c3ccc4nccc(C(=O)NCC(=O)N5CC(F)(F)C[C@H]5C#N)c4c3)CC2)C(=O)NCCOCCOCCOCC(=O)N2CCN(CCCN(C)c3ccc4nccc(C(=O)NCC(=O)N5CC(F)(F)C[C@H]5C#N)c4c3)CC2)CC1)c1ccc2nccc(C(=O)NCC(=O)N3CC(F)(F)C[C@H]3C#N)c2c1.[68Ga+3] [^68Ga-DOTA-4P(FAPI)4] |  | highly stable | neither significant demetallation nor free radioactivity was observed | 57.98% ± 0.27% | 97 | 1.79% ± 0.97% | eliminated predominantly through the kidneys and bladder | 92 | 1.87 ± 0.08 | 0.16 ± 0.03 | 1.99 ± 0.09 | tumor uptake remained constant up to 4 h after injection | minimal | 0.72 ± 0.02
